Patent US12281149B2, “Modulators of G-protein coupled receptors” (priority 2021, dated 2025)
pEC50: −log10 of the molar value. *1 amine or outer side, *2 acyl side, *3 side chain or, on linkers, in order; H or OH if unused. Where a SMILES comes first, the peptide text is derived from it. Side-chain parts run from the residue outwards. [ ]: non-standard residue; d: D form. The star is where a group is joined. Isobutyryl(2-(3-CN-5-F-Ph)) = CC(C)(C(=O)*)c1cc(F)cc(C#N)c1; Azetidine3carboxylic = O=C(C1CN([*:1])C1)[*:2]; C20 diacid = O=C(O)CCCCCCCCCCCCCCCCCCC(=O)*; γGlu = O=C(O)[C@H](CCC(=O)[*:2])N[*:1]; X84 = O=C([C@H]1CCCN([*:1])C1)[*:2]; X17 = CC(C)(C(=O)*)c1ccc(F)c(F)c1; X18 = O=C(C1(c2cccc(F)c2)CCCC1)*; X77 = CC(C(=O)*)c1cc(F)cc(F)c1; AEEA = NCCOCCOCC(=O)O; Aib = CC(C)(N)C(=O)O; βAla = NCCC(=O)O

Assays:
Type in all cases: cell-based
GLP-1 receptor [1] = biological target: T1, GLP-1 receptor (Homo sapiens, UniProt P43220); test: HitHunter cAMP assay, GLP-1 receptor; conditions: for pEC50: CHO cells stably expressing human GLP-1 receptor, cAMP accumulation, 30 min, read-out: EC50 GLP-1R; for Emax: CHO cells, cAMP, normalized to maximum signal from GLP-1 (high) and DMSO (low), read-out: Emax GLP-1R
T1 sequence (P43220 24-463): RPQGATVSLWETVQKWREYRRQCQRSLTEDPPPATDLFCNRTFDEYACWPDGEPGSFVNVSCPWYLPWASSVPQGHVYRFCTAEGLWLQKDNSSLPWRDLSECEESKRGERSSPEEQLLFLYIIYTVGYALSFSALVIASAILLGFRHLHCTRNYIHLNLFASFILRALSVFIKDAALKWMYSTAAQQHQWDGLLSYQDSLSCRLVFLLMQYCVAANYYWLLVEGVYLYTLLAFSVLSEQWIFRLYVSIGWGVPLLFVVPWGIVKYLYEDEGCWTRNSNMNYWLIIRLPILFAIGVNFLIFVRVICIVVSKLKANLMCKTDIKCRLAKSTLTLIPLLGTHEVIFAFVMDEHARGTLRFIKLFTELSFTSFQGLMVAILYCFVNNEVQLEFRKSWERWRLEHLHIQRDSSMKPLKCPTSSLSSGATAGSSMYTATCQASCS

GIP receptor [2] = biological target: T2, GIP receptor (Homo sapiens, UniProt P48546); test: HitHunter cAMP assay, GIP receptor; conditions: for pEC50: CHO cells stably expressing GIP receptor, cAMP accumulation, 30 min, read-out: EC50 GIP-1R; for Emax: CHO cells, cAMP, normalized to maximum signal from GIP (high) and DMSO (low), read-out: Emax GIP-1R
T2 sequence (P48546 22-466): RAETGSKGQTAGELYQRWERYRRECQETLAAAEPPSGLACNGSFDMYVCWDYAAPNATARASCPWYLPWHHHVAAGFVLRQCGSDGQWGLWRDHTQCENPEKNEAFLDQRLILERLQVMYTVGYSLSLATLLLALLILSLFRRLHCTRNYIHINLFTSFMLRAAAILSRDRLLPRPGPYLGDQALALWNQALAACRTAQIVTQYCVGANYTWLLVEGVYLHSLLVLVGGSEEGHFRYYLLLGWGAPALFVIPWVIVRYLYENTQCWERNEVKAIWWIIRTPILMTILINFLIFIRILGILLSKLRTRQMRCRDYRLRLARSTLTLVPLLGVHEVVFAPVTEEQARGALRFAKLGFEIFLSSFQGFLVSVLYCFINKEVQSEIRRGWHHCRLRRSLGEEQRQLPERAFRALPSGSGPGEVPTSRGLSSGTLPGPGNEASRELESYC

GIP receptor [3] = biological target: T2, GIP receptor; test: PathHunter β-arrestin assay, GIP receptor; design: host or cells: PathHunter CHO-K1 GIPR β-Arrestin Cell Line; conditions: β-arrestin-2 recruitment, PathHunter CHO-K1 GIPR β-Arrestin Cell Line, 90 min at 37° C.; normalized to GIP; read-out: GIPR β Arrestin EC50
GLP-1 receptor [4] = biological target: T1, GLP-1 receptor; test: PathHunter β-arrestin assay, GLP-1 receptor; design: host or cells: PathHunter CHO-K1 GLP1R β-Arrestin Cell Line; conditions: β-arrestin-2 recruitment, PathHunter CHO-K1 GLP1R β-Arrestin Cell Line, 90 min at 37° C.; normalized to GLP-1; read-out: GLP-1R β Arrestin EC50

Row | Structure (SMILES) | pEC50 (GLP-1 receptor [1]) | Emax (GLP-1 receptor [1]) [%] | pEC50 (GIP receptor [2]) | pEC50 (GIP receptor [3]) | pEC50 (GLP-1 receptor [4]) | Emax (GIP receptor [2]) [%]
1 | CC[C@H](C)[C@H](NC(=O)[C@H](CC(C)C)NC(=O)[C@H](Cc1c[nH]c2ccccc12)NC(=O)[C@H](CCC(N)=O)NC(=O)[C@@H](NC(=O)[C@H](Cc1ccccc1)NC(=O)[C@H](C)NC(=O)[C@H](CCCCNC(=O)COCCOCCNC(=O)COCCOCCNC(=O)CC[C@H](NC(=O)CCCCCCCCCCCCCCCCCCC(=O)O)C(=O)O)NC(=O)[C@H](CCC(N)=O)NC(=O)[C@H](C)NC(=O)[C@@H](NC(=O)[C@H](CCCCN)NC(=O)[C@H](CC(=O)O)NC(=O)[C@H](CC(C)C)NC(=O)C(C)(C)NC(=O)[C@@H](NC(=O)[C@H](CO)NC(=O)[C@H](Cc1ccc(O)cc1)NC(=O)[C@H](CC(=O)O)NC(=O)[C@H](CO)NC(=O)[C@@H](NC(=O)[C@H](Cc1ccccc1)NC(=O)[C@@H](NC(=O)CNC(=O)[C@H](CCC(=O)O)NC(=O)[C@H]1CCCN(C(=O)C(C)(C)c2cc(F)cc(C#N)c2)C1)[C@@H](C)O)[C@@H](C)O)[C@@H](C)CC)[C@@H](C)CC)C(C)C)C(=O)N[C@@H](C)C(=O)NCC(=O)NCC(=O)N1CCC[C@H]1C(=O)N[C@@H](CO)C(=O)N[C@@H](CO)C(=O)NCC(=O)N[C@@H](C)C(=O)N1CCC[C@H]1C(=O)N1CCC[C@H]1C(=O)N1CCC[C@H]1C(=O)N[C@@H](CO)C(N)=O [Compound 212] ({Isobutyryl(2-(3-CN-5-F-Ph))}-[X84]EGTFTSDYSI[Aib]LDKIAQK([AEEA-AEEA-γGlu-C20 diacid])AFVQWLIAGGPSSGAPPPS-NH2) | 7.00 to 8.00 | 89 | < 6.00 | < 6.00 | < 6.00 | 
2 | CC[C@H](C)[C@H](NC(=O)[C@H](CC(C)C)NC(=O)[C@H](Cc1c[nH]c2ccccc12)NC(=O)[C@H](CCC(N)=O)NC(=O)[C@@H](NC(=O)[C@H](Cc1ccccc1)NC(=O)[C@H](C)NC(=O)[C@H](CCCCNC(=O)COCCOCCNC(=O)COCCOCCNC(=O)CC[C@H](NC(=O)CCCCCCCCCCCCCCCCCCC(=O)O)C(=O)O)NC(=O)[C@H](CCC(N)=O)NC(=O)[C@H](C)NC(=O)[C@@H](NC(=O)[C@H](CCCCN)NC(=O)[C@H](CC(=O)O)NC(=O)[C@H](CC(C)C)NC(=O)C(C)(C)NC(=O)[C@@H](NC(=O)[C@H](CO)NC(=O)[C@H](Cc1ccc(O)cc1)NC(=O)[C@H](CC(=O)O)NC(=O)[C@H](CO)NC(=O)[C@@H](NC(=O)[C@H](Cc1ccccc1)NC(=O)[C@@H](NC(=O)CNC(=O)[C@H](CCC(=O)O)NC(=O)C1CN(C(=O)C(C)(C)c2cc(F)cc(C#N)c2)C1)[C@@H](C)O)[C@@H](C)O)[C@@H](C)CC)[C@@H](C)CC)C(C)C)C(=O)N[C@@H](C)C(=O)NCC(=O)NCC(=O)N1CCC[C@H]1C(=O)N[C@@H](CO)C(=O)N[C@@H](CO)C(=O)NCC(=O)N[C@@H](C)C(=O)N1CCC[C@H]1C(=O)N1CCC[C@H]1C(=O)N1CCC[C@H]1C(=O)N[C@@H](CO)C(N)=O [Compound 213] ({Isobutyryl(2-(3-CN-5-F-Ph))}-[Azetidine3carboxylic]EGTFTSDYSI[Aib]LDKIAQK([AEEA-AEEA-γGlu-C20 diacid])AFVQWLIAGGPSSGAPPPS-NH2) | 6.00 to 7.00 | 78 | 6.00 to 7.00 | < 6.00 | < 6.00 | 92
3 | CC[C@H](C)[C@H](NC(=O)[C@H](CC(C)C)NC(=O)[C@H](Cc1c[nH]c2ccccc12)NC(=O)[C@H](CCC(N)=O)NC(=O)[C@@H](NC(=O)[C@H](Cc1ccccc1)NC(=O)[C@H](C)NC(=O)[C@H](CCCCNC(=O)COCCOCCNC(=O)COCCOCCNC(=O)CC[C@H](NC(=O)CCCCCCCCCCCCCCCCCCC(=O)O)C(=O)O)NC(=O)[C@H](CCC(N)=O)NC(=O)[C@H](C)NC(=O)[C@@H](NC(=O)[C@H](CCCCN)NC(=O)[C@H](CC(=O)O)NC(=O)[C@H](CC(C)C)NC(=O)C(C)(C)NC(=O)[C@@H](NC(=O)[C@H](CO)NC(=O)[C@H](Cc1ccc(O)cc1)NC(=O)[C@H](CC(=O)O)NC(=O)[C@H](CO)NC(=O)[C@@H](NC(=O)[C@H](Cc1ccccc1)NC(=O)[C@@H](NC(=O)CNC(=O)[C@H](CCC(=O)O)NC(=O)CCNC(=O)C1(c2cccc(F)c2)CCCC1)[C@@H](C)O)[C@@H](C)O)[C@@H](C)CC)[C@@H](C)CC)C(C)C)C(=O)N[C@@H](C)C(=O)NCC(=O)NCC(=O)N1CCC[C@H]1C(=O)N[C@@H](CO)C(=O)N[C@@H](CO)C(=O)NCC(=O)N[C@@H](C)C(=O)N1CCC[C@H]1C(=O)N1CCC[C@H]1C(=O)N1CCC[C@H]1C(=O)N[C@@H](CO)C(N)=O [Compound 214] ({X18-βAla}-EGTFTSDYSI[Aib]LDKIAQK([AEEA-AEEA-γGlu-C20 diacid])AFVQWLIAGGPSSGAPPPS-NH2) | 9.00 to 10.00 | 97 | 9.00 to 10.00 | < 6.00 | < 6.00 | 101
4 | CC[C@H](C)[C@H](NC(=O)[C@H](CC(C)C)NC(=O)[C@H](Cc1c[nH]c2ccccc12)NC(=O)[C@H](CCC(N)=O)NC(=O)[C@@H](NC(=O)[C@H](Cc1ccccc1)NC(=O)[C@H](C)NC(=O)[C@H](CCCCNC(=O)COCCOCCNC(=O)COCCOCCNC(=O)CC[C@H](NC(=O)CCCCCCCCCCCCCCCCCCC(=O)O)C(=O)O)NC(=O)[C@H](CCC(N)=O)NC(=O)[C@H](C)NC(=O)[C@@H](NC(=O)[C@H](CCCCN)NC(=O)[C@H](CC(=O)O)NC(=O)[C@H](CC(C)C)NC(=O)C(C)(C)NC(=O)[C@@H](NC(=O)[C@H](CO)NC(=O)[C@H](Cc1ccc(O)cc1)NC(=O)[C@H](CC(=O)O)NC(=O)[C@H](CO)NC(=O)[C@@H](NC(=O)[C@H](Cc1ccccc1)NC(=O)[C@@H](NC(=O)CNC(=O)[C@H](CCC(=O)O)NC(=O)CCNC(=O)C(C)(C)c1ccc(F)c(F)c1)[C@@H](C)O)[C@@H](C)O)[C@@H](C)CC)[C@@H](C)CC)C(C)C)C(=O)N[C@@H](C)C(=O)NCC(=O)NCC(=O)N1CCC[C@H]1C(=O)N[C@@H](CO)C(=O)N[C@@H](CO)C(=O)NCC(=O)N[C@@H](C)C(=O)N1CCC[C@H]1C(=O)N1CCC[C@H]1C(=O)N1CCC[C@H]1C(=O)N[C@@H](CO)C(N)=O [Compound 215] ({X17-βAla}-EGTFTSDYSI[Aib]LDKIAQK([AEEA-AEEA-γGlu-C20 diacid])AFVQWLIAGGPSSGAPPPS-NH2) | 9.00 to 10.00 | 98 | 9.00 to 10.00 | > 6.00 | < 6.00 | 99
5 | CC[C@H](C)[C@H](NC(=O)[C@H](CC(C)C)NC(=O)[C@H](Cc1c[nH]c2ccccc12)NC(=O)[C@H](CCC(N)=O)NC(=O)[C@@H](NC(=O)[C@H](Cc1ccccc1)NC(=O)[C@H](C)NC(=O)[C@H](CCCCNC(=O)COCCOCCNC(=O)COCCOCCNC(=O)CC[C@H](NC(=O)CCCCCCCCCCCCCCCCCCC(=O)O)C(=O)O)NC(=O)[C@H](CCC(N)=O)NC(=O)[C@H](C)NC(=O)[C@@H](NC(=O)[C@H](CCCCN)NC(=O)[C@H](CC(=O)O)NC(=O)[C@H](CC(C)C)NC(=O)C(C)(C)NC(=O)[C@@H](NC(=O)[C@H](CO)NC(=O)[C@H](Cc1ccc(O)cc1)NC(=O)[C@H](CC(=O)O)NC(=O)[C@H](CO)NC(=O)[C@@H](NC(=O)[C@H](Cc1ccccc1)NC(=O)[C@@H](NC(=O)CNC(=O)[C@H](CCC(=O)O)NC(=O)CCNC(=O)C(C)c1cc(F)cc(F)c1)[C@@H](C)O)[C@@H](C)O)[C@@H](C)CC)[C@@H](C)CC)C(C)C)C(=O)N[C@@H](C)C(=O)NCC(=O)NCC(=O)N1CCC[C@H]1C(=O)N[C@@H](CO)C(=O)N[C@@H](CO)C(=O)NCC(=O)N[C@@H](C)C(=O)N1CCC[C@H]1C(=O)N1CCC[C@H]1C(=O)N1CCC[C@H]1C(=O)N[C@@H](CO)C(N)=O (some centres unmarked) [Compound 216] ({X77-βAla}-EGTFTSDYSI[Aib]LDKIAQK([AEEA-AEEA-γGlu-C20 diacid])AFVQWLIAGGPSSGAPPPS-NH2) | 9.00 to 10.00 | 102 | 7.00 to 8.00 | < 6.00 | < 6.00 | 93
